# Test results taken from publication PMC12386606, “Evaluation of the In Vitro Blood–Brain Barrier Transport of Ferula persica L. Bioactive Compounds” (International Journal of Molecular Sciences, 2025).
# Read-outs that look alike come from different tables or passages of the source.
# Tests used:
# SH-SY5Y cells = experiment: Neuroprotection against H2O2, L-glutamate and Aβ1-42 in differentiated SH-SY5Y cells (MTT); conditions: 24 h
# Protocol: To investigate the neuroprotective potential of AerExt or RootExt, oxidative damage (H2O2), excitotoxic stress (L-glutamate), and Aβ1-42 toxicity were induced in cells and evaluated as described by [58]. Briefly, SH-SY5Y cells were plated as described above, and 24 h after cell attachment, cells were pre-treated with non-toxic concentrations of AerExt or RootExt (40 μg mL^−1 for AerExt; 20 μg mL^−1 for RootExt) for 24 h. In the control group, DMEM/F12 cell medium supplemented with 1% FBS, 100 U mL^−1 penicillin, 100 μg mL^−1 streptomycin, 250 ng mL^−1 antimycotic, and 0.4% ethanol was used. The next day, cells were incubated with either cell medium alone (control), H2O2 (65 μM), L-glutamate (23 mM), or Aβ1-42 (30 μM) for 24 h. Cell viability was assessed by MTT assay at the end of the experiments. All the experiments were repeated three times, and a T-test was applied between the treated and control conditions considering statistically significant differences when p < 0.05.
# [1] = PAMPA
# Protocol: (§1) The permeability of bioactive compounds from AerExt and RootExt across the BBB was assessed using the PAMPA-BBB assay, following the methodology described by [11]. Firstly, the BBB solution was prepared by dissolving 8 mg of PBL and 4 mg of cholesterol in 600 μL of n-dodecane. The initial donor solution was prepared by mixing 1 mL of AerExt or RootExt (at 10 mg mL^−1 in EtOH) with 1 mL of buffer (PBS, pH = 7.4, 10 mM). The filter membrane of the donor plate was coated with 5 μL of BBB solution. The acceptor plate was filled with 350 μL of buffer, and the donor plate was carefully placed on top of the acceptor plate to form a “sandwich-like” assembly. Subsequently, 350 μL of the donor solution was added to the donor plate, which was then covered and incubated at 37 °C for 4 h in the dark. After the incubation time, 300 μL of the solution was collected from each plate, transferred into separate vials, and evaporated using a SpeedVac system at 40 °C under 13 mbar pressure. The dried acceptor and donor solutions were dissolved in 50 μL of pure EtOH before being subjected to HPLC-Q-TOF-MS/MS and GC-Q-TOF-MS analysis. Permeability (Pe) across the PAMPA-BBB of the bioactive compound was calculated according to Equation (1) [54], with modifications in concentration rates.Pe = −ln[1 − CA(t)/Cequilibrium]/(A × (1/VD + 1/VA) × t)(1)
# (§2) Cequilibrium was calculated according to Equation (2):Cequilibrium = [CD(t) × VD + CA(t) × VA]/(VD + VA)(2)
# (§3) The HPLC-MS and GC-MS chromatograms were processed using the Agilent Mass Hunter Qualitative software (version B.10.0) to verify the retention time and exact mass of the compounds previously reported by us [25] and to extract their peak area to calculate the BBB permeability.
# [2] = oil/water partition coefficient; Table 1; ref PubChem; cited from earlier work
# [3] = Parallel artificial membrane permeability assay for the blood–brain barrier (PAMPA-BBB); conditions: 37 °C, 4 h, PBS pH 7.4, n.q. = not quantified in the acceptor plate
# Protocol: as §1, §2, §3
# HBMEC cells = experiment: Blood–brain barrier transport study in HBMEC Transwell monolayer; conditions: n.q. = not quantified in the basolateral compartment
# Protocol: After the toxicity evaluation, the HBMEC cell line was also used as a simplified in vitro model of the BBB endothelium. Cells were seeded at a density of 1.6 × 10^5 cells/cm^2 in 12-well Transwell® plates (Corning Costar Corp., Corning, USA) with a pore diameter of 0.4 μm, pre-coated with type I rat tail collagen (100 μg mL^−1) [55]. The culture medium was renewed every 2 days until a monolayer cell structure was formed (see Supplementary Figure S2), and transport experiments were initiated after 10 days. In transport experiments, the medium in the apical (upper) compartment of the Transwell system was removed, and 0.5 mL of AerExt or RootExt at a concentration of 40 μg mL^−1 and 20 μg mL^−1, respectively, was added to these compartments (applied in duplicate). Also, a medium containing 0.4% (v/v) ethanol was used as control group. The basolateral (lower) compartments were filled with 1.5 mL of fresh culture medium. The cells were incubated under these conditions for 2, 4, and 24 h.
# At the end of the incubation periods, media samples were collected from both chambers and lyophilized using a freeze-drying system from Martin Christ (Osterode am Harz, Germany). The samples were stored at −80 °C until analysis. The collected samples were subjected to chemical analyses to evaluate the ability of bioactive compounds contained in the extracts to pass through the cell monolayer.
# The transport efficiency (Te) of bioactive substances was calculated based on Equation (3), described by [56]:Te (%) = CLower/CUpper × 100(3)
# This calculation was performed to understand whether the compound crosses the cell layer and how efficiently it is transported.
# For this purpose, 0.2 mL of cold water (H2O) was added to the samples, and the samples were vortexed for 10 s. Then, 0.8 mL of cold methanol was added and vortexed again for 10 s. Then, the mixture was centrifuged at 14,000 rpm for 5 min, and the supernatant was carefully transferred to a 1.5 mL Eppendorf tube and dried in a SpeedVac device at 40 °C and 13 bar pressure. Finally, the dried samples were resuspended in 25 μL of pure ethanol for their subsequent analysis.
# For HPLC-Q-TOF MS/MS analysis, aliquots of 2 μL were injected into an HPLC model 1290 coupled to a Q-TOF series 6540 (Agilent Technologies, Waldbronn, Germany). For GC-Q-TOF MS analysis, aliquots of 1 μL were injected with a split ratio of 1:10 into a GC model 7890B coupled to a Q-TOF series 7200 (Agilent Technologies, Waldbronn, Germany). The HPLC-MS and GC-MS chromatograms were processed using the Agilent Mass Hunter Qualitative software (version B.10.0) to verify the retention time and exact mass of the compounds previously reported by us [25] and to extract their peak area to calculate the BBB permeability.
smiles,measurement,setting,value
OO [H2O2],"cell viability after neurotoxic agent, compared with control",SH-SY5Y cells; H2O2 65 µM,48%
COc1c(O)cc2oc(-c3ccc(O[C@@H]4O[C@H](CO)[C@@H](O)[C@H](O)[C@H]4O)cc3)cc(=O)c2c1O [Hispidulin 4′-glucoside],AerExt Cross BBB Potential,[1],+ (key: –: not quantified in acceptor; +: log Pe < −6.5; ++: −6.5 < log Pe < −5.5; +++: −5.5 < log Pe < −4.5)
same,AerExt log Pe,[1]; pH 7.4,−6.14
N[C@@H](CCC(=O)O)C(=O)O [L-glutamate],viability at 23000 µM,"SH-SY5Y cells; Homo sapiens, read-out: cell viability after neurotoxic agent, compared with control",47%
Cc1nccc2c1[nH]c1ccccc12 [Harman],AerExt Cross BBB Potential,[1],++ (key: –: not quantified in acceptor; +: log Pe < −6.5; ++: −6.5 < log Pe < −5.5; +++: −5.5 < log Pe < −4.5)
same,log p,[2],3.6
O=C(O)/C=C/c1ccc(O)cc1 [4-coumaric acid],log p,[2],1.5
same,AerExt log Pe,[3]; compound within AerExt donor solution,n.q.
same,RootExt log Pe,[3]; compound within RootExt donor solution,n.q.
same,AerExt Te (%) ± SD 2 h,"HBMEC cells; AerExt 40 µg mL^−1 apical, 2 h",n.q.
same,AerExt Te (%) ± SD 4 h,"HBMEC cells; AerExt 40 µg mL^−1 apical, 4 h",n.q.
same,AerExt Te (%) ± SD 24 h,"HBMEC cells; AerExt 40 µg mL^−1 apical, 24 h",n.q.
same,RootExt Te (%) ± SD 2 h,"HBMEC cells; RootExt 20 µg mL^−1 apical, 2 h",n.q.
same,RootExt Te (%) ± SD 4 h,"HBMEC cells; RootExt 20 µg mL^−1 apical, 4 h",n.q.
same,RootExt Te (%) ± SD 24 h,"HBMEC cells; RootExt 20 µg mL^−1 apical, 24 h",n.q.
